This note sets out measurements from ChEMBL document CHEMBL3751745, “Aryl-imidazothiadiazole analogues as microtubule disrupting agents” (Medchemcomm, 2015).

Experiment [1] is described as follows: Cytotoxicity against human MIAPaCa2 cells assessed as cell viability after 48 hrs by SRB assay. The format is functional, cell-based. To be noted: MIA PaCa-2, 48 h. In general terms: The SRB assay estimates cell density from bound dye.
For the next experiment, the system named is MCF7. Briefly: Cytotoxicity against human MCF7 cells assessed as cell viability after 48 hrs by SRB assay. To be noted: MCF7, 48 h. The format is functional, cell-based.
The test system of experiment [2] is HeLa. The experiment is described as follows: Cytotoxicity against human HeLa cells assessed as cell viability after 48 hrs by SRB assay. The format is functional, cell-based.
The nature of experiment [3]: Cytotoxicity against human DU145 cells assessed as cell viability after 48 hrs by SRB assay. In kind it is functional, cell-based. Conditions: DU-145, 48 h.
The target of the next experiment is Tubulin (Sus scrofa) (UniProt P02554+P02550). Briefly: Inhibition of porcine brain tubulin polymerization at 5 uM by fluorescence based assay.
In experiment [4] the test system is HeLa. Briefly: Induction of cell cycle arrest in human HeLa cells assessed as cell arrest at accumulation at G2/M phase at 5 uM after 24 hrs by flow cytometric analysis (reference value: 25.49%). In kind it is functional. For orientation: In flow cytometry, cells or beads pass a laser one at a time.
The subject of experiment [5] is HeLa. Briefly: Induction of cell cycle arrest in human HeLa cells assessed as cell arrest at accumulation at G2/M phase at 2 uM after 24 hrs by flow cytometric analysis (reference value: 25.49%). In kind it is functional.
Experiment [6] concerns HeLa. Briefly: Disruption of microtubule organization in human HeLa cells at 5 uM after 24 hrs by DAPI-FITC staining based confocal microscopic analysis. In kind it is functional, cell-based.
In a further experiment the target is Tubulin (Homo sapiens) (UniProt P68371+Q9H4B7+P0DPH7+P68366+Q13509+Q71U36+P04350+Q3ZCM7+P07437+P68363+Q9BQE3+Q6PEY2+Q13885+Q9BVA1+Q9BUF5). The experiment is described as follows: Inhibition of colchicine binding to tubulin (unknown origin) assessed as decrease in tubulin-colchicine complex at 0 to 15 uM incubated for 1 hr by fluorescence based colchicine competitive binding assay. The format is protein-complex assay.

Experiment [7] has as its system HeLa. The experiment is described as follows: Induction of apoptosis in human HeLa cells assessed as activation of caspase-3 activity at 2 uM after 24 hrs by ELISA. The format is functional. Background: An ELISA detects its analyte on a solid surface through an enzyme-linked reagent.
Experiment [8] concerns HeLa. Briefly: Induction of apoptosis in human HeLa cells assessed as activation of caspase-3 activity at 4 uM after 24 hrs by ELISA. The format is functional.
The test system of experiment [9] is HeLa. The experiment is described as follows: Induction of apoptosis in human HeLa cells assessed as induction of cyclin B1 levels at 5 uM after 24 hrs by Western blot analysis. In kind it is functional, cell-based.
The test system of experiment [10] is HeLa. Briefly: Induction of apoptosis in human HeLa cells assessed as activation of cyclin B1 mRNA levels at 5 uM after 24 hrs by semi-quantitative RT-PCR. The format is functional, cell-based.
A further experiment deals with Tubulin (Sus scrofa, UniProt P02554+P02550). The experiment is described as follows: Inhibition of porcine brain tubulin polymerization by fluorescence based assay.

Calls of active or inactive are those of the source. The rule behind the calls is not given here.

Chain of Tubulin (Sus scrofa) (P02550 whole entry, looked up): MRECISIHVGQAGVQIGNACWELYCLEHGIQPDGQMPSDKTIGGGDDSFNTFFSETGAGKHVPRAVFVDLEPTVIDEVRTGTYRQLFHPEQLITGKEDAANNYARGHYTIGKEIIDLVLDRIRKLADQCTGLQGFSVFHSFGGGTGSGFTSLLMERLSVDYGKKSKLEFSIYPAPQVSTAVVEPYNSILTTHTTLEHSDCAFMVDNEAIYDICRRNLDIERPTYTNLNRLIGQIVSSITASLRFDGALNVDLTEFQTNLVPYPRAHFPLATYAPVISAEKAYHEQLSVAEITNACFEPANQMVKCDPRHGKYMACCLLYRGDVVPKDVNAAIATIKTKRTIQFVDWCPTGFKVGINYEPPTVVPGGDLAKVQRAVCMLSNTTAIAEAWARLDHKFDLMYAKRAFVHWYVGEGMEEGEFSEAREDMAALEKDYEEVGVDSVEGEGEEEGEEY
Chain of Tubulin (Sus scrofa) (P02554 whole entry, looked up): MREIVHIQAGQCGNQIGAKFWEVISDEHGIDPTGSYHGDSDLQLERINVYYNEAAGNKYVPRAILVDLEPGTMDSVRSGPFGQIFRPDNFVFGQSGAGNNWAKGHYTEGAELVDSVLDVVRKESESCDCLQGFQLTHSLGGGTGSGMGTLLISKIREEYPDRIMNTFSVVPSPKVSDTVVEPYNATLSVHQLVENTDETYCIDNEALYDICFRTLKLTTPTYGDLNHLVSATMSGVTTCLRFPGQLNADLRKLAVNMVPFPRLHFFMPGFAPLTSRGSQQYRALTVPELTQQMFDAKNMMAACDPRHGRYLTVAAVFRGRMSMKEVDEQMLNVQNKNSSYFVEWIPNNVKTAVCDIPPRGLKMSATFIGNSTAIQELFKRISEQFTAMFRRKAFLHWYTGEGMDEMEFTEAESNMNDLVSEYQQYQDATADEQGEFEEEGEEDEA

What is called IC50 is the midpoint of a concentration-inhibition curve. What is called inhibition is how much of the control response was suppressed. `CCc1nn2c(-c3ccc4ccccc4c3)c(-c3cc(OC)c(OC)c(OC)c3)nc2s1`: the IC50 is 1.2 µM in experiment [1]; 2.4 µM in the experiment on MCF7; 1.6 µM in the experiment on HeLa [2]; 4.49 µM in experiment [3]; 1.7 µM against Tubulin. The inhibition against Tubulin (Sus scrofa) is 75.1%; on Tubulin (Homo sapiens), “Dose-dependent effect”. Besides, the Activity is reported as 78.3% with HeLa [4] and 64.84% in the experiment with HeLa [5]. Besides, the outcome in the experiment on HeLa [6], in the experiment with HeLa [9] and in the experiment on HeLa [10] was Active. Moreover, the “fold change (FC)” value with HeLa [7] and in the experiment with HeLa [8] was 2.5 in each case.

For `CC(=O)O[C@H]1C(=O)[C@@]2(C)[C@H]([C@H](OC(=O)c3ccccc3)[C@]3(O)C[C@H](OC(=O)[C@H](O)[C@@H](NC(=O)c4ccccc4)c4ccccc4)C(C)=C1C3(C)C)[C@]1(OC(C)=O)CO[C@@H]1C[C@@H]2O`, the inhibition result at Tubulin (Homo sapiens) is “inactive”. In addition, the result in the experiment on HeLa [9] and in the experiment with HeLa [10] was Active.
